Paper PMC7026418, “The kinase polypharmacology landscape of clinical PARP inhibitors” (Scientific Reports, 2020)
Like-named read-outs stand apart in the source and are kept apart here.

Tests used:
Experiment in all cases: biochemical
Parameters in all cases: DiscoveRx KINOMEscan active site-directed competition binding; percent of control kinase bound to immobilised ligand
QSK = biological target: T1, QSK (Homo sapiens, UniProt Q9Y2K2)
T1 construct: gene SIK3

PKN2 = PKN2 (Homo sapiens, UniProt Q16513)
ROCK1 = ROCK1 (Homo sapiens, UniProt Q13464)
AKT1 = AKT1 (Homo sapiens, UniProt P31749)
BMPR2 = biological target: T2, BMPR2 (Homo sapiens, UniProt Q13873)
T2 sequence (Q13873 1-1038): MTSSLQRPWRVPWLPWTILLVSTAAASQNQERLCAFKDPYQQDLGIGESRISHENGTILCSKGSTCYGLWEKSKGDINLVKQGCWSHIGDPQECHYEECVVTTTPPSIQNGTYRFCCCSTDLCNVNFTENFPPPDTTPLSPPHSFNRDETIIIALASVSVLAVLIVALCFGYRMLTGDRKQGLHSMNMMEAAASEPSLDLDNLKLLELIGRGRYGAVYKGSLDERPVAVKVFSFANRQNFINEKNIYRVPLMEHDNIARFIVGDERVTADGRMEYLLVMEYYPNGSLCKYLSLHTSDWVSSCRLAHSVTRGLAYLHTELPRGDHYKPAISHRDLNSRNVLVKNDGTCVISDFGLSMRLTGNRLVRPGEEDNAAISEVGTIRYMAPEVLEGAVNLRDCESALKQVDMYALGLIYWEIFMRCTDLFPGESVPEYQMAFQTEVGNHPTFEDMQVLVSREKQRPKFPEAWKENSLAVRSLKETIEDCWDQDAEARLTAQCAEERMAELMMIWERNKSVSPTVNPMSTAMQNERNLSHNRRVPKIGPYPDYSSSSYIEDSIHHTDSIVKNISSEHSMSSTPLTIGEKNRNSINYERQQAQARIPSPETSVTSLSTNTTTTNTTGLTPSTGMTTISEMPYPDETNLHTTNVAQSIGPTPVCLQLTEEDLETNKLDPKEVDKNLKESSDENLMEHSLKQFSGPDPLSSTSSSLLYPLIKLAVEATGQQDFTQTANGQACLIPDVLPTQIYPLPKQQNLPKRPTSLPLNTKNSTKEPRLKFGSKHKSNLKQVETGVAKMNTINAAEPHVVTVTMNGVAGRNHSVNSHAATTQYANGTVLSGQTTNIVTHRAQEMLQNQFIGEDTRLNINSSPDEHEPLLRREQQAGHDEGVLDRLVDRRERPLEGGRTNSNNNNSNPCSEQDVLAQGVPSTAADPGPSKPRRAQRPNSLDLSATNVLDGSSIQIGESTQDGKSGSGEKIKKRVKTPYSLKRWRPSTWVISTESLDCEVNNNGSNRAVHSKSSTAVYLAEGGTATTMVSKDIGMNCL

JNK2 = biological target: T3, JNK2 (Homo sapiens, UniProt P45984)
T3 construct: gene MAPK9

[1] = biological target: T4, RSK1(Kin.Dom.2-C-terminal) (Homo sapiens, UniProt Q15418)
T4 construct: gene RPS6KA1; Kin.Dom.2-C-terminal

TIE2 = biological target: T5, TIE2 (Homo sapiens, UniProt Q02763)
T5 construct: gene TEK

DYRK2 = biological target: T6, DYRK2 (Homo sapiens, UniProt Q92630)
T6 sequence (Q92630 1-601): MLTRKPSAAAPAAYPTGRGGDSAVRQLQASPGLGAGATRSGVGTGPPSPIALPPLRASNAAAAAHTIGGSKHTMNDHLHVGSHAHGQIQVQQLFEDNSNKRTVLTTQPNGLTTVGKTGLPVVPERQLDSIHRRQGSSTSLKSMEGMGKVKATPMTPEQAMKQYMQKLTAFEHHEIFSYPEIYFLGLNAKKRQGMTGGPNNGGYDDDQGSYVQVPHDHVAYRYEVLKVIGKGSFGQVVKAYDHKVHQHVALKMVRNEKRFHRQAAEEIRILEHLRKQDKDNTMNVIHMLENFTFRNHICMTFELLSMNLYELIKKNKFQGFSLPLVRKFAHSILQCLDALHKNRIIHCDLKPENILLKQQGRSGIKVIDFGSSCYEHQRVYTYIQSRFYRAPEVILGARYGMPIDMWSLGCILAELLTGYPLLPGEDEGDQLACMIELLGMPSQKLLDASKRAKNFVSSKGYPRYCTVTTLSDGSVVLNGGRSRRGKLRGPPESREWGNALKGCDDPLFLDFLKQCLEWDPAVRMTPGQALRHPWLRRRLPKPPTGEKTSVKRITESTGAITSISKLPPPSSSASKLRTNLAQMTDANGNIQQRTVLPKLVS

ACVRL1 = ACVRL1 (Homo sapiens, UniProt P37023)
CSNK1G2 = CSNK1G2 (Homo sapiens, UniProt P78368)
PAK6 = PAK6 (Homo sapiens, UniProt Q9NQU5)
[2] = read-out: Niraparib (MK-4827) / %Ctrl @ 10000nM
[3] = read-out: Olaparib / %Ctrl @ 10000nM
[4] = read-out: Rucaparib / %Ctrl @ 10000nM, binding competition, % of control
[5] = read-out: Talazoparib (BMN 673) / %Ctrl @ 10000nM

ACVRL1, sequence (P37023 whole entry): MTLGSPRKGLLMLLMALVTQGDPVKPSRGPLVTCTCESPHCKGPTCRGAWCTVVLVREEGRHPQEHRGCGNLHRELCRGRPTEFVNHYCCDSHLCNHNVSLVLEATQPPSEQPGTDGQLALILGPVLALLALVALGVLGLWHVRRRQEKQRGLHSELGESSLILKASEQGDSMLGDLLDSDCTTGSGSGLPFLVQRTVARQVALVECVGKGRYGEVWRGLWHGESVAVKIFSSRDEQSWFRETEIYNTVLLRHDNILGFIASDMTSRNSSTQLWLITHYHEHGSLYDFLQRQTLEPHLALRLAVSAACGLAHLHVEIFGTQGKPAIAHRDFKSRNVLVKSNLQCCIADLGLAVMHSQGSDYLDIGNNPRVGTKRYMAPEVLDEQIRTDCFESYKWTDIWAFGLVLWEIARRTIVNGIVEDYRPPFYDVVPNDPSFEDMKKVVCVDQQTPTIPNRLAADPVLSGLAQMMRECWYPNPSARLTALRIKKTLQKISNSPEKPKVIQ
T4 sequence (Q15418 whole entry): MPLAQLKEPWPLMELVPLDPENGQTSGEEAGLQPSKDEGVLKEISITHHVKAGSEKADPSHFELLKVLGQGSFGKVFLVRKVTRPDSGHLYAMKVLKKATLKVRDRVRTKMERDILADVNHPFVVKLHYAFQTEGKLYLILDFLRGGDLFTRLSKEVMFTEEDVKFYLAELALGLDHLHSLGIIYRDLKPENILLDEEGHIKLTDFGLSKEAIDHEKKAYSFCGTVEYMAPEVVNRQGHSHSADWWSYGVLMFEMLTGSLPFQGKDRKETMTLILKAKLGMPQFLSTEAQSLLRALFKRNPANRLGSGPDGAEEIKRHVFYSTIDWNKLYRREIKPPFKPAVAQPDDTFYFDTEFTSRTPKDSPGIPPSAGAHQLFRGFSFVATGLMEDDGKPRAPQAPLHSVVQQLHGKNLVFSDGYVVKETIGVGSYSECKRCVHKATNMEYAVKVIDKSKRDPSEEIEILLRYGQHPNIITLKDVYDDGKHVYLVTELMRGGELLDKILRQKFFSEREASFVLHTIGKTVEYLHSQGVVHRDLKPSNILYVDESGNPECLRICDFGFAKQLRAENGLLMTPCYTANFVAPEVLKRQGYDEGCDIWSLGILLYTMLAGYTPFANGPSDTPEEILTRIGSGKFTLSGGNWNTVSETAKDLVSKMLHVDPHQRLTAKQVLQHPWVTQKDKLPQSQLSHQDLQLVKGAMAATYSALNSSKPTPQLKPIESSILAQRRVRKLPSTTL
T5 sequence (Q02763 whole entry): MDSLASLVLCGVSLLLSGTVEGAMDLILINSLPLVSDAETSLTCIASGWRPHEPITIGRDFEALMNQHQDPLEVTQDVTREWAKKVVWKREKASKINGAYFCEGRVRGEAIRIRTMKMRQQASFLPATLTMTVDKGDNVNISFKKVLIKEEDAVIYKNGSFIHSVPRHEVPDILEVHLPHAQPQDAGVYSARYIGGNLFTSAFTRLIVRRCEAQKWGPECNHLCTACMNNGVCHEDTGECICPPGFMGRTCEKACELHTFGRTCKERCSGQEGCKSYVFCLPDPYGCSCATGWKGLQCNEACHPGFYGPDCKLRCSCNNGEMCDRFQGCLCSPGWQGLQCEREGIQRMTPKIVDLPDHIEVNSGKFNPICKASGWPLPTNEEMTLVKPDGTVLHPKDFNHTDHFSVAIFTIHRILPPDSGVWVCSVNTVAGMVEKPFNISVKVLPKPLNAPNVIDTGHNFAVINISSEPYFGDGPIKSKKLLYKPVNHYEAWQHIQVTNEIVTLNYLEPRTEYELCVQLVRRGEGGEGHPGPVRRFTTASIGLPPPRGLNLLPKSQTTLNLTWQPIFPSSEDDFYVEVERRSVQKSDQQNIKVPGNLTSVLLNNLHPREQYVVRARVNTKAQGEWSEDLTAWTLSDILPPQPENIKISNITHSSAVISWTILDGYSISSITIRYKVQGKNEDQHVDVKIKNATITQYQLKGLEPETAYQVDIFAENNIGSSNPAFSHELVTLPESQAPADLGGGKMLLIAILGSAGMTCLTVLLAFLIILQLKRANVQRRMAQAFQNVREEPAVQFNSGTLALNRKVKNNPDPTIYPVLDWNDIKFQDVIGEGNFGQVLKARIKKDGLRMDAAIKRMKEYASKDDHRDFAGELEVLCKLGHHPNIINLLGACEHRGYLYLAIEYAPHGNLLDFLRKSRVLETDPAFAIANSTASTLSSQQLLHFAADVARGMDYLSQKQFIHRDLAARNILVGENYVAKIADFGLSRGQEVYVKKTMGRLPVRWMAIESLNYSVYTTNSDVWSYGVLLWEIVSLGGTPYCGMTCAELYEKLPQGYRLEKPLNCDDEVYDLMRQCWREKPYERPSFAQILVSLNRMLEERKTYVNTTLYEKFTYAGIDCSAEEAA
T3 sequence (P45984 whole entry): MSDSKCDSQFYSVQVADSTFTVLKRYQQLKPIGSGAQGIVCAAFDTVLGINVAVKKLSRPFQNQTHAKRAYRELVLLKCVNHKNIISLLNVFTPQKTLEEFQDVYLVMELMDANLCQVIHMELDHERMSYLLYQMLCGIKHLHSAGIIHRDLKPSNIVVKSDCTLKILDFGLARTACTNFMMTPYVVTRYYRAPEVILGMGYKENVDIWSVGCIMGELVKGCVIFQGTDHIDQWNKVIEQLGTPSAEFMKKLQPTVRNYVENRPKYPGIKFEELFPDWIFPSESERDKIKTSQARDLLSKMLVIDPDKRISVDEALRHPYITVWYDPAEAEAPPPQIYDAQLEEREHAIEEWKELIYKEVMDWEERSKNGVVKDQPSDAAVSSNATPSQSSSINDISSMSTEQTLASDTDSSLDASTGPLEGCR
AKT1, sequence (P31749 whole entry): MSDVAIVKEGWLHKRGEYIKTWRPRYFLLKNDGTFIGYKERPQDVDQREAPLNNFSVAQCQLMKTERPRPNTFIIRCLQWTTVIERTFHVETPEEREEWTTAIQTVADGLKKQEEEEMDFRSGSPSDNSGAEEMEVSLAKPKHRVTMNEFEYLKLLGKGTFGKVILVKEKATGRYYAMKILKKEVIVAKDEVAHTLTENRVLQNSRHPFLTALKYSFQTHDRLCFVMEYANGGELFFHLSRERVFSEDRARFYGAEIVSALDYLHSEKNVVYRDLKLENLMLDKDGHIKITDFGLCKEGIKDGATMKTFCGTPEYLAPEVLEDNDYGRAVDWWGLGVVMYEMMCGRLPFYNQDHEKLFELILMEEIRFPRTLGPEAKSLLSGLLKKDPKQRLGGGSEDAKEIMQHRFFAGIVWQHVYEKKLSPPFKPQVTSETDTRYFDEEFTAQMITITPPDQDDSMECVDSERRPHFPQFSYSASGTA
CSNK1G2, sequence (P78368 whole entry): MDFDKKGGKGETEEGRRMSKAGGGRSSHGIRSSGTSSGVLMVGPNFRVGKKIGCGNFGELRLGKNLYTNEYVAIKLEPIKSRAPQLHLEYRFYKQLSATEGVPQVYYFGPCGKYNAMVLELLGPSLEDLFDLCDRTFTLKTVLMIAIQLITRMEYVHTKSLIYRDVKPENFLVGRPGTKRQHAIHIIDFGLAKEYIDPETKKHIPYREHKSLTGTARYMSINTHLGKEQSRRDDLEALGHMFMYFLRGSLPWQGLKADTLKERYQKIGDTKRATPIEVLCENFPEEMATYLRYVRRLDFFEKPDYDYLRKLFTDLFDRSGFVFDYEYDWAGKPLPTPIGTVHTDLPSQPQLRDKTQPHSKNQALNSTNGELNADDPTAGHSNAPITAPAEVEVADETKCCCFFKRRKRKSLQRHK
PAK6, sequence (Q9NQU5 whole entry): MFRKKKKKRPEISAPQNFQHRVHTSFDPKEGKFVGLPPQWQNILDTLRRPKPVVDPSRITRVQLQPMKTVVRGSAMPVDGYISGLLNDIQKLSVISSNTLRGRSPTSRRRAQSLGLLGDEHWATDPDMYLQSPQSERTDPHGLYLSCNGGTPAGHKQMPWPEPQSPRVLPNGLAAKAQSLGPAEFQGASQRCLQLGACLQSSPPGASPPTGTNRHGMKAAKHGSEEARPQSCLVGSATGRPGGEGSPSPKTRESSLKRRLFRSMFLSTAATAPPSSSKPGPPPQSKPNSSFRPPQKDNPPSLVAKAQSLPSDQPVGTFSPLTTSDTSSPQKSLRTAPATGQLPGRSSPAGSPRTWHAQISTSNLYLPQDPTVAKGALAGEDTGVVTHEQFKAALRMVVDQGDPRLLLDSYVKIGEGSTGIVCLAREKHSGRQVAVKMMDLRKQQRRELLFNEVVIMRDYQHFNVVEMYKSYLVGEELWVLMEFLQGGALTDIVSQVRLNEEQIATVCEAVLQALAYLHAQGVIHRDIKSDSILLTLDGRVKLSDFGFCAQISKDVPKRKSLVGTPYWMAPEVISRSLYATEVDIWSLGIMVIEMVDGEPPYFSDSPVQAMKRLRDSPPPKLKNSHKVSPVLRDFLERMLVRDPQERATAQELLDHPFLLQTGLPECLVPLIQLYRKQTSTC

NC(=O)c1cccc2cn(-c3ccc([C@@H]4CCCNC4)cc3)nc12 [Niraparib]
percent of control binding at 10 µM (QSK; [2]): 93%
percent of control binding at 10 µM (PKN2; [2]): 95%
percent of control binding at 10 µM (ROCK1; [2]): 61%
percent of control binding at 10 µM (AKT1; [2]): 99%
percent of control binding at 10 µM (BMPR2; [2]): 96%
percent of control binding at 10 µM (JNK2; [2]): 95%
percent of control binding at 10 µM [1, 2]: 93%
percent of control binding at 10 µM (TIE2; [2]): 98%
percent of control binding at 10 µM (DYRK2; [2]): 54%
percent of control binding at 10 µM (ACVRL1; [2]): 98%
percent of control binding at 10 µM (CSNK1G2; [2]): 79%
percent of control binding at 10 µM (PAK6; [2]): 93%

O=C(c1cc(Cc2n[nH]c(=O)c3ccccc23)ccc1F)N1CCN(C(=O)C2CC2)CC1 [Olaparib]
percent of control binding at 10 µM (QSK; [3]): 83%
percent of control binding at 10 µM (PKN2; [3]): 100%
percent of control binding at 10 µM (ROCK1; [3]): 97%
percent of control binding at 10 µM (AKT1; [3]): 100%
percent of control binding at 10 µM (BMPR2; [3]): 80%
percent of control binding at 10 µM (JNK2; [3]): 81%
percent of control binding at 10 µM [1, 3]: 76%
percent of control binding at 10 µM (TIE2; [3]): 100%
percent of control binding at 10 µM (DYRK2; [3]): 99%
percent of control binding at 10 µM (ACVRL1; [3]): 97%
percent of control binding at 10 µM (CSNK1G2; [3]): 81%
percent of control binding at 10 µM (PAK6; [3]): 87%

CNCc1ccc(-c2[nH]c3cc(F)cc4c3c2CCNC4=O)cc1 [Rucaparib]
percent of control binding at 10 µM (QSK; [4]): 77%
percent of control binding at 10 µM (PKN2; [4]): 99%
percent of control binding at 10 µM (ROCK1; [4]): 85%
percent of control binding at 10 µM (AKT1; [4]): 91%
percent of control binding at 10 µM (BMPR2; [4]): 83%
percent of control binding at 10 µM (JNK2; [4]): 68%
percent of control binding at 10 µM [1, 4]: 70%
percent of control binding at 10 µM (TIE2; [4]): 92%
percent of control binding at 10 µM (DYRK2; [4]): 38%
percent of control binding at 10 µM (ACVRL1; [4]): 100%
percent of control binding at 10 µM (CSNK1G2; [4]): 89%
percent of control binding at 10 µM (PAK6; [4]): 96%

Cn1ncnc1[C@H]1c2n[nH]c(=O)c3cc(F)cc(c23)N[C@@H]1c1ccc(F)cc1 [Talazoparib]
percent of control binding at 10 µM (QSK; [5]): 75%
percent of control binding at 10 µM (PKN2; [5]): 85%
percent of control binding at 10 µM (ROCK1; [5]): 100%
percent of control binding at 10 µM (AKT1; [5]): 92%
percent of control binding at 10 µM (BMPR2; [5]): 100%
percent of control binding at 10 µM (JNK2; [5]): 95%
percent of control binding at 10 µM [1, 5]: 100%
percent of control binding at 10 µM (TIE2; [5]): 100%
percent of control binding at 10 µM (DYRK2; [5]): 86%
percent of control binding at 10 µM (ACVRL1; [5]): 84%
percent of control binding at 10 µM (CSNK1G2; [5]): 91%
percent of control binding at 10 µM (PAK6; [5]): 90%
